Test results as given in PubChem BioAssay (NCI).
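Assay format: 96-well plates, 48-hour exposure. GI50 = concentration required for 50% inhibition of growth. TGI: concentration producing complete growth inhibition.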

How the values were obtained:
Test in all cases: DTP human tumour cell line panel, 48 h
CAKI-1 renal = test system: CAKI-1 renal
DU-145 prostate = test system: DU-145 prostate
HCT-116 colon = test system: HCT-116 colon
HOP-92 NSCLC = test system: HOP-92 NSCLC
KM12 colon = test system: KM12 colon
MALME-3M melanoma = test system: MALME-3M melanoma
SF-268 CNS = test system: SF-268 CNS
SK-MEL-5 melanoma = test system: SK-MEL-5 melanoma

Structure (SMILES)	GI50 (CAKI-1 renal)	TGI (CAKI-1 renal)	GI50 (DU-145 prostate)	TGI (DU-145 prostate)	GI50 (HCT-116 colon)	TGI (HCT-116 colon)	GI50 (HOP-92 NSCLC)	TGI (HOP-92 NSCLC)	GI50 (KM12 colon)	TGI (KM12 colon)	GI50 (MALME-3M melanoma)	TGI (MALME-3M melanoma)	GI50 (SF-268 CNS)	TGI (SF-268 CNS)	GI50 (SK-MEL-5 melanoma)	TGI (SK-MEL-5 melanoma)
CC1=C2[C@@H](CC1)[C@]1(C)O[C@@](C(C)C)(C[C@H]1OC(=O)CO)[C@H]2OC(=O)CCCc1ccccc1	4.24 µM	16.7 µM	8.82 µM	20.9 µM	3.54 µM	13.9 µM	3.86 µM	18 µM	5.97 µM	20.1 µM	6.52 µM	19.8 µM	11.5 µM	32.6 µM	7.91 µM	20.3 µM
CC1(C)N=c2cc3c(cc2N1c1ccc(Cl)cc1)=Nc1ccccc1N3c1ccc(Cl)cc1	18.2 µM	> 100 µM	7.45 µM	> 100 µM	3.68 µM	> 100 µM	1.57 µM	6.59 µM	6.84 µM	> 100 µM	4.79 µM	> 100 µM	7.56 µM	> 100 µM	3.64 µM	20.3 µM
CC1(C)CCc2c(c(N=Nc3ccccc3F)c3ccccc3c2O)O1	31.6 µM	> 100 µM	87.5 µM	> 100 µM	27.7 µM	> 100 µM	92.6 µM	> 100 µM	23 µM	65.1 µM	34.5 µM	> 100 µM	76.3 µM	> 100 µM	52.6 µM	> 100 µM
O=C1c2ccccc2C(=O)c2c1oc1c2c(=O)[nH]c2ccc(Cl)cc21			0.279 µM	0.781 µM	0.307 µM	1.09 µM	0.151 µM	0.389 µM	0.447 µM	3.02 µM	0.226 µM	0.441 µM	0.456 µM	3.99 µM	0.305 µM	1.21 µM
O=C(Nc1cccc(C(F)(F)F)c1)c1ccc(NC2=C(Cl)C(=O)N(Cc3ccccc3)C2=O)cc1	1.65 µM	3.24 µM	3.38 µM	12.3 µM	2.81 µM	9.22 µM	3.93 µM	14.2 µM	10.5 µM	24.8 µM			6.41 µM	29.9 µM	4.07 µM	18.1 µM
C=CCOc1ccc(N)c([N+](=O)[O-])c1		> 100 µM		> 100 µM		> 100 µM				> 100 µM		> 100 µM		> 100 µM		> 100 µM
Cc1cc(=O)oc2cc3oc(N(C)c4ccccc4)nc(=O)c3cc12		> 100 µM		> 100 µM		> 100 µM		> 100 µM		> 100 µM		> 100 µM		> 100 µM		> 100 µM
Cc1ccc2[nH]c(C(=O)NN3C(=O)C(C)SC34CCC(C)CC4)c(-c3ccccc3)c2c1 (configuration not stated)	15.6 µM	38 µM	21.8 µM	54.3 µM	15.2 µM	34.5 µM	16.7 µM	36 µM	15.4 µM	35.2 µM	17 µM	33.4 µM	14.9 µM	35.5 µM	18.4 µM	36.3 µM
CC[C@H]1CCC/C=C/[C@@H]2C[C@H](O)C[C@H]2[C@H](O)/C=C/C(=O)O1	0.0444 µM	> 100 µM	0.179 µM	> 100 µM	0.0328 µM	0.119 µM	0.157 µM	> 100 µM	0.0227 µM	0.0523 µM	0.0381 µM		0.0403 µM	> 100 µM	0.0166 µM	0.0328 µM
COc1cc2c(/C=C3/C(=O)Nc4ccc(O)cc43)c(Cl)n(Cc3cc(OC)c(OC)c(OC)c3)c2cc1C	2.25 µM	15 µM	3.42 µM	> 30.3 µM	2.18 µM	> 33.2 µM	3.18 µM	21.9 µM	1.63 µM	> 30.5 µM	0.494 µM	3.91 µM	4.64 µM	> 100 µM	1.02 µM	2.71 µM
CCc1cccc(NC(=O)Nc2ccc(Oc3ccc4nc(NC(=O)OC)[nH]c4c3)cc2)c1	> 15.4 µM	> 25 µM	4.94 µM	> 15.4 µM	3.39 µM	> 14.9 µM	2.33 µM	10.4 µM	0.0985 µM	4.94 µM	2.14 µM	11.1 µM	4.33 µM	15.9 µM	1.29 µM	7.15 µM
Fc1ccc(-c2ncn(CCCN3CCOCC3)c2-c2ccncc2)cc1	> 25 µM	> 25 µM	> 25 µM	> 25 µM	> 25 µM	> 25 µM	> 25 µM	> 25 µM	> 25 µM	> 25 µM	> 25 µM	> 25 µM	> 25 µM	> 25 µM	> 25 µM	> 25 µM
Cc1ccc(-c2nc(/C=N/Nc3cc(C)nc4ccc(Br)cc34)c(C)o2)cc1	1.73 µM	3.12 µM	1.8 µM	3.36 µM	1.85 µM	3.46 µM	1.5 µM	2.98 µM	1.89 µM	3.6 µM	2.05 µM	3.62 µM	2.09 µM	4.22 µM	3.7 µM	13.6 µM
CC(C)=Cc1cccc2[nH]c(O)c(N=Nc3ccc(S(N)(=O)=O)cc3)c12	1.69 µM	> 25 µM	5.09 µM	> 25 µM	1.74 µM	> 14.3 µM	6.57 µM	> 25 µM	0.1 µM	> 18.6 µM	> 25 µM	> 25 µM	12.4 µM	> 25 µM		> 25 µM
CCN(CCO)CCCC(C)Nc1ccnc2cc(Cl)ccc12 (configuration not stated)	> 100 µM	> 100 µM	> 100 µM	> 100 µM	> 100 µM	> 100 µM	> 100 µM	> 100 µM	> 100 µM	> 100 µM	> 100 µM	> 100 µM	> 100 µM	> 100 µM	> 100 µM	> 100 µM
